pEC50: −log10 of the molar value. Numbered stars: 1 amine (or outer) side, 2 acyl side, 3 side chain; on linkers, the order of the positions; unused ones are H or OH. Bridge positions count the residues as written; N and C are the ends. Square brackets hold non-standard residues; d marks the D form. Peptide text beside a SMILES is read from it. * marks the point of attachment. C20 diacid = O=C(O)CCCCCCCCCCCCCCCCCCC(=O)*; γGlu = O=C(O)[C@H](CCC(=O)[*:2])N[*:1]; Hyp = O=C(O)[C@@H]1C[C@@H](O)CN1
Key:
hAMY3 receptor = biological target: T1, hAMY3 receptor (Homo sapiens, UniProt O60896+P30988); test: cAMP assay for in vitro receptor activation, hAMY3-R; assay type: cell-based; details: cAMP assay, hAMY3 receptor; read-out: hAMY3R EC50
T1 sequence (P30988 25-474): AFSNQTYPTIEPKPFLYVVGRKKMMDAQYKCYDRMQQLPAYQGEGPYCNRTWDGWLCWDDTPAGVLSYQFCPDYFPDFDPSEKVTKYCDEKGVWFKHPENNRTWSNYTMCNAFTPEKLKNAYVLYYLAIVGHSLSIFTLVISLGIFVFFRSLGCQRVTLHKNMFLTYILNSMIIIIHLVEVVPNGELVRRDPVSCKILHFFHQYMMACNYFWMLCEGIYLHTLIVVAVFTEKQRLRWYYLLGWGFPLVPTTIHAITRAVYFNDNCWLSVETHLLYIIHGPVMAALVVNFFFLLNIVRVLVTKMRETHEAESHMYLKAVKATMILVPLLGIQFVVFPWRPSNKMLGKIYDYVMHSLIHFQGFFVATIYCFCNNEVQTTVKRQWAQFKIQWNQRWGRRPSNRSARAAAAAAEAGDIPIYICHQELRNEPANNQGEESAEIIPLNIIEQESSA
T1 sequence (O60896 24-148 partner): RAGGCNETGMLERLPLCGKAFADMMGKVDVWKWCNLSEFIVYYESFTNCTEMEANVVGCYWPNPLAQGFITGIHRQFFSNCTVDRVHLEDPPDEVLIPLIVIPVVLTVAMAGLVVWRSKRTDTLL
How it was run: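 Read-out is TR-FRET cAMP signal, recorded one hour after reagent addition, following 30 min room-temperature stimulation of stable hAMY3 cells with graded compound doses in casein/IBMX (0.5 mM) buffer.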

hAM1 receptor = hAM1 receptor (Homo sapiens, UniProt O60895+Q16602); test: cAMP assay for in vitro receptor activation, hAM1-R; assay type: cell-based; details: cAMP assay, hAM1 receptor; read-out: hAM1R EC50
Sequence of hAM1 receptor (Q16602 23-461): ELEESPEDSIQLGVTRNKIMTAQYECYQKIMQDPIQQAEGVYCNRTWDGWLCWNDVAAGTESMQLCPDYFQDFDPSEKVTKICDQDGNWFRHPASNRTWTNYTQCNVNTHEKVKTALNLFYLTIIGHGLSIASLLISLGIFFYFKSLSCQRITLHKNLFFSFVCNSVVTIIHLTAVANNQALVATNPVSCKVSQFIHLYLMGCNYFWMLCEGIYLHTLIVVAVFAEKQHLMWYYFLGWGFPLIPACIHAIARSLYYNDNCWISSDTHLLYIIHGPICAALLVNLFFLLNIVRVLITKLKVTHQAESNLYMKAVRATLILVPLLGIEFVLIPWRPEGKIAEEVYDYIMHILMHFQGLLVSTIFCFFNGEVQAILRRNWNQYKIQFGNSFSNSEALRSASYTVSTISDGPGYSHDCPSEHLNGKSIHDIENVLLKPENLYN
Sequence of hAM1 receptor (O60895 43-175 partner): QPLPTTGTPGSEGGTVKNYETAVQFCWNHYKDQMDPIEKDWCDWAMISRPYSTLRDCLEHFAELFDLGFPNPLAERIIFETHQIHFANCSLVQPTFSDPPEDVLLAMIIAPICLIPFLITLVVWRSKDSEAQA
How it was run: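 Stable hAM1 cells (monoclonal) plated 8000/well; buffer DPBS, 0.05% casein, 0.5 mM IBMX; cAMP read-out.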

Structure (SMILES)	pEC50 (hAMY3 receptor)	pEC50 (hAM1 receptor)
CC[C@H](C)[C@H](NC(=O)[C@H](CCC(N)=O)NC(=O)[C@H](Cc1c[nH]cn1)NC(=O)[C@H](C)NC(=O)[C@H](CC(C)C)NC(=O)[C@H](CCCNC(=N)N)NC(=O)[C@H](CCC(N)=O)NC(=O)[C@@H](NC(=O)[C@@H](NC(=O)[C@@H]1CSSC[C@H](NC(=O)[C@H](CCCCN)NC(=O)CC[C@H](NC(=O)CCCCCCCCCCCCCCCCCCC(=O)O)C(=O)O)C(=O)N[C@@H](CC(N)=O)C(=O)N[C@@H]([C@@H](C)O)C(=O)N[C@@H](CO)C(=O)N[C@@H]([C@@H](C)O)C(=O)N1)[C@@H](C)O)C(C)C)C(=O)N[C@@H](C)C(=O)N[C@@H](CCC(N)=O)C(=O)N[C@@H](Cc1ccccc1)C(=O)N[C@H](C(=O)N[C@@H](CC(=O)O)C(=O)N[C@@H](CCCCN)C(=O)N[C@@H](CC(=O)O)C(=O)N[C@@H](CCCCN)C(=O)N[C@@H](CC(=O)O)C(=O)N1CCC[C@H]1C(=O)N[C@H](C(=O)N[C@@H](C)C(=O)N1CCC[C@H]1C(=O)N1CCC[C@H]1C(=O)N[C@H](C(=O)N[C@@H](CC(N)=O)C(=O)N[C@H](C(=O)NCC(=O)N[C@@H](CO)C(=O)N[C@@H](CC(N)=O)C(=O)NCC(=O)N1C[C@H](O)C[C@H]1C(N)=O)C(C)C)[C@@H](C)O)C(C)C)[C@@H](C)O [compound 88] ({C20 diacid-γGlu}-KCNTSTCTVQRLAHQIAQFTDKDKDPVAPPTNVGSNG[Hyp]-NH2; disulfide 2-7)	10.82	< 5.30
CC[C@H](C)[C@H](NC(=O)[C@H](CCC(N)=O)NC(=O)[C@H](Cc1c[nH]cn1)NC(=O)[C@H](C)NC(=O)[C@H](CC(C)C)NC(=O)[C@H](CCCNC(=N)N)NC(=O)[C@H](CCC(N)=O)NC(=O)[C@@H](NC(=O)[C@@H](NC(=O)[C@@H]1CSSC[C@H](NC(=O)[C@H](CCCCN)NC(=O)CC[C@H](NC(=O)CCCCCCCCCCCCCCCCCCC(=O)O)C(=O)O)C(=O)N[C@@H](CC(N)=O)C(=O)N[C@@H]([C@@H](C)O)C(=O)N[C@@H](CC(C)C)C(=O)N[C@@H]([C@@H](C)O)C(=O)N1)[C@@H](C)O)C(C)C)C(=O)N[C@@H](Cc1ccc(O)cc1)C(=O)N[C@@H](CCC(N)=O)C(=O)N[C@@H](Cc1ccccc1)C(=O)N[C@H](C(=O)N[C@@H](CC(=O)O)C(=O)N[C@@H](CCCCN)C(=O)N[C@@H](CC(=O)O)C(=O)N[C@@H](CCCCN)C(=O)N[C@@H](CC(=O)O)C(=O)N[C@@H](CC(N)=O)C(=O)N[C@H](C(=O)N[C@@H](C)C(=O)N1CCC[C@H]1C(=O)N1CCC[C@H]1C(=O)N[C@H](C(=O)N[C@@H](CC(N)=O)C(=O)N[C@H](C(=O)NCC(=O)N[C@@H](CO)C(=O)N[C@@H](CC(N)=O)C(=O)NCC(=O)N1C[C@H](O)C[C@H]1C(N)=O)C(C)C)[C@@H](C)O)C(C)C)[C@@H](C)O [compound 225] ({C20 diacid-γGlu}-KCNTLTCTVQRLAHQIYQFTDKDKDNVAPPTNVGSNG[Hyp]-NH2; disulfide 2-7)	9.73	< 5.30
CC[C@H](C)[C@H](NC(=O)[C@H](CCC(N)=O)NC(=O)[C@H](Cc1c[nH]cn1)NC(=O)[C@H](C)NC(=O)[C@H](CC(C)C)NC(=O)[C@H](CCCNC(=N)N)NC(=O)[C@H](CC(N)=O)NC(=O)[C@@H](NC(=O)[C@@H](NC(=O)[C@@H]1CSSC[C@H](NC(=O)[C@H](CCCCN)NC(=O)CC[C@H](NC(=O)CCCCCCCCCCCCCCCCCCC(=O)O)C(=O)O)C(=O)N[C@@H](CC(N)=O)C(=O)N[C@@H]([C@@H](C)O)C(=O)N[C@@H](C)C(=O)N[C@@H]([C@@H](C)O)C(=O)N1)[C@@H](C)O)C(C)C)C(=O)N[C@@H](Cc1ccc(O)cc1)C(=O)N[C@@H](CCC(N)=O)C(=O)N[C@@H](Cc1ccccc1)C(=O)N[C@H](C(=O)N[C@@H](CC(=O)O)C(=O)N[C@@H](CCCCN)C(=O)N[C@@H](CC(=O)O)C(=O)N[C@@H](CCCCN)C(=O)N[C@@H](CC(=O)O)C(=O)N[C@@H](CC(N)=O)C(=O)N[C@H](C(=O)N[C@@H](C)C(=O)N1CCC[C@H]1C(=O)N1CCC[C@H]1C(=O)N[C@H](C(=O)N[C@@H](CC(N)=O)C(=O)N[C@H](C(=O)NCC(=O)N[C@@H](CO)C(=O)N[C@@H](CC(N)=O)C(=O)NCC(=O)N1C[C@H](O)C[C@H]1C(N)=O)C(C)C)[C@@H](C)O)C(C)C)[C@@H](C)O [compound 38] ({C20 diacid-γGlu}-KCNTATCTVNRLAHQIYQFTDKDKDNVAPPTNVGSNG[Hyp]-NH2; disulfide 2-7)	11.00	< 5.30

Next, values leading:

pEC50 (hAMY3 receptor)	pEC50 (hAM1 receptor)	Structure (SMILES)
11.00	< 5.30	CC[C@H](C)[C@H](NC(=O)[C@H](CCC(N)=O)NC(=O)[C@H](Cc1c[nH]cn1)NC(=O)[C@H](C)NC(=O)[C@H](CC(C)C)NC(=O)[C@H](CCCNC(=N)N)NC(=O)[C@H](C)NC(=O)[C@@H](NC(=O)[C@@H](NC(=O)[C@@H]1CSSC[C@H](NC(=O)[C@H](CCCCN)NC(=O)CC[C@H](NC(=O)CCCCCCCCCCCCCCCCCCC(=O)O)C(=O)O)C(=O)N[C@@H](CC(N)=O)C(=O)N[C@@H]([C@@H](C)O)C(=O)N[C@@H](C)C(=O)N[C@@H]([C@@H](C)O)C(=O)N1)[C@@H](C)O)C(C)C)C(=O)N[C@@H](Cc1ccc(O)cc1)C(=O)N[C@@H](CCC(N)=O)C(=O)N[C@@H](Cc1ccccc1)C(=O)N[C@H](C(=O)N[C@@H](CC(=O)O)C(=O)N[C@@H](CCCCN)C(=O)N[C@@H](CC(=O)O)C(=O)N[C@@H](CCCCN)C(=O)N[C@@H](CC(=O)O)C(=O)N[C@@H](CC(N)=O)C(=O)N[C@H](C(=O)N[C@@H](C)C(=O)N1CCC[C@H]1C(=O)N1CCC[C@H]1C(=O)N[C@H](C(=O)N[C@@H](CC(N)=O)C(=O)N[C@H](C(=O)NCC(=O)N[C@@H](CO)C(=O)N[C@@H](CC(N)=O)C(=O)NCC(=O)N1C[C@H](O)C[C@H]1C(N)=O)C(C)C)[C@@H](C)O)C(C)C)[C@@H](C)O [compound 37] ({C20 diacid-γGlu}-KCNTATCTVARLAHQIYQFTDKDKDNVAPPTNVGSNG[Hyp]-NH2; disulfide 2-7)
11.22	< 5.30	CC[C@H](C)[C@H](NC(=O)[C@H](CCC(N)=O)NC(=O)[C@H](CC(=O)O)NC(=O)[C@H](C)NC(=O)[C@H](CC(C)C)NC(=O)[C@H](CCCNC(=N)N)NC(=O)[C@H](C)NC(=O)[C@@H](NC(=O)[C@@H](NC(=O)[C@@H]1CSSC[C@H](NC(=O)[C@@H](N)CCCCN)C(=O)N[C@@H](CC(N)=O)C(=O)N[C@@H]([C@@H](C)O)C(=O)N[C@@H](CO)C(=O)N[C@@H]([C@@H](C)O)C(=O)N1)[C@@H](C)O)C(C)C)C(=O)N[C@H](C(=O)N[C@@H](CCC(N)=O)C(=O)N[C@@H](Cc1ccccc1)C(=O)N[C@@H](CO)C(=O)N[C@@H](CC(N)=O)C(=O)N[C@@H](CCCCN)C(=O)N[C@@H](CC(=O)O)C(=O)N[C@@H](CCCCN)C(=O)N[C@@H](C)C(=O)N[C@@H](CCC(N)=O)C(=O)N[C@H](C(=O)N[C@@H](CO)C(=O)N1CCC[C@H]1C(=O)N1CCC[C@H]1C(=O)N[C@H](C(=O)N[C@@H](CCC(=O)O)C(=O)N[C@H](C(=O)NCC(=O)N1CCC[C@H]1C(=O)N[C@@H](CC(N)=O)C(=O)N[C@@H](CO)C(=O)N1C[C@H](O)C[C@H]1C(N)=O)C(C)C)[C@@H](C)O)C(C)C)[C@@H](C)O [compound 8] (H-KCNTSTCTVARLADQITQFSNKDKAQVSPPTEVGPNS[Hyp]-NH2; disulfide 2-7; N-terminus assumed)
11.10	< 5.30	CC[C@H](C)[C@H](NC(=O)[C@H](C)NC(=O)CNC(=O)[C@H](Cc1ccccc1)NC(=O)[C@H](CC(N)=O)NC(=O)[C@H](CC(N)=O)NC(=O)[C@H](CO)NC(=O)[C@H](CO)NC(=O)[C@H](Cc1c[nH]cn1)NC(=O)[C@@H](NC(=O)[C@H](CC(C)C)NC(=O)[C@H](Cc1ccccc1)NC(=O)[C@H](CC(N)=O)NC(=O)[C@H](C)NC(=O)[C@H](CC(C)C)NC(=O)[C@H](CCCNC(=N)N)NC(=O)[C@H](CCC(N)=O)NC(=O)[C@@H](NC(=O)[C@H](C)NC(=O)[C@@H]1CSSC[C@H](NC(=O)[C@@H](N)CCCCN)C(=O)N[C@@H](CC(N)=O)C(=O)N[C@@H]([C@@H](C)O)C(=O)N[C@@H](C)C(=O)N[C@@H]([C@@H](C)O)C(=O)N1)[C@@H](C)O)C(C)C)C(=O)N[C@@H](CC(C)C)C(=O)N1CCC[C@H]1C(=O)N[C@@H](CCCNC(=N)N)C(=O)N[C@H](C(=O)N[C@@H](CCCCN)C(=O)N[C@H](C(=O)NCC(=O)N[C@@H](CO)C(=O)N[C@@H](CC(N)=O)C(=O)NCC(=O)N[C@@H](Cc1ccc(O)cc1)C(N)=O)C(C)C)[C@@H](C)O [compound 19] (H-KCNTATCATQRLANFLVHSSNNFGAILPRTKVGSNGY-NH2; disulfide 2-7)
